Literature values in patent US7354746B1, “Method for producing optically active IHOG and monatin” (Ajinomoto Co., Inc., priority 2006, dated 2008).
Where two headings read alike, the source gives them in different places.

Settings: for Sweetness (vs. Sucrose): sweetness intensity relative to sucrose

Row | Structure (SMILES) | Sweetness (vs. Sucrose) [times] | Sweetness rank among the 4 types of monatin isomers (comparison of the 4 monatin isomers) | Sweetness (vs. Sucrose) (listed as (2R, 4R)-monatin)
1 | N[C@@H](C[C@](O)(Cc1c[nH]c2ccccc12)C(=O)O)C(=O)O [2S, 4R, (2S, 4R)-monatin] | 300 |  | 
2 | N[C@H](C[C@@](O)(Cc1c[nH]c2ccccc12)C(=O)O)C(=O)O [2R, 4S] | 1300 |  | 
3 | NC(CC(O)(Cc1c[nH]c2ccccc12)C(=O)O)C(=O)O [2S, 4S, (2S, 4S)-monatin] | 50 |  | 
4 | N[C@H](CC(O)(Cc1c[nH]c2ccccc12)C(=O)O)C(=O)O (stereo partly drawn) [2R, 4R, (2R, 4R)-monatin] | 2700 | highest sweetness | 2,700 times
